Key:
MDA-MB-468 cells = experiment: MDA-MB-468 cell proliferation inhibition (MTT); type: cell-based; settings: MDA-MB-468 proliferation
Protocol: MDA-MB-468 cells are one of the triple-negative breast cancer (TNBC: negative for the expression of estrogen receptor, progesterone receptor and HER2) cells known as a malignant tumor that is difficult to diagnose at an early stage and has a high metastatic capacity, and these cells are used to test inhibition of proliferation and survival of breast cancer cells.
MDA-MB-468 cells cultured in a 96-well cell culture plate were treated with the compound of the present invention and cultured for 72 hours. Thereafter, the antiproliferative effect of the compound was assayed by the MTT method using a tetrazolium salt.

Hep3B = experiment: Cancer cell proliferation GI50 (CCK-8); type: cell-based; settings: Homo sapiens, liver cancer, 72 hours
Protocol: (§1) The proliferation effect of SY-1365, which is known to have a proliferation inhibitory effect on various carcinoma cells, and the compound of the present invention on various cancer cells was measured and compared as GI50 (half maximal growth inhibitory concentration, the concentration at which cell proliferation is reduced by half).
(§2) Various carcinoma cells were cultured at 37° C. in a humidified condition in the presence of 5% CO2. Each cell cultured in a 96-well cell culture plate was treated with the compound of the present invention and cultured for 72 hours.
(§3) In this example, in order to confirm the proliferation inhibitory effect on various cancer cells, Compound 121 was tested as follows.
(§4) The cells were cultured with a culture medium shown in Table 9 below at 37° C. in a humidified condition in the presence of 5% CO2. Each cell cultured in a 96-well cell culture plate was treated with the compound of the present invention and cultured for 72 hours.

Huh7 = experiment: Cancer cell proliferation GI50 (CCK-8); type: cell-based; settings: Homo sapiens, Huh7 (Huh-7), liver cancer, 72 hours
Protocol: as §1, §2, §3, §4

MDA-MB-231 = experiment: Cancer cell proliferation GI50 (CCK-8); type: cell-based; settings: Homo sapiens, MDA-MB-231, breast cancer, 72 hours
Protocol: as §1, §2, §3, §4

MDA-MB-468 = experiment: Cancer cell proliferation GI50 (CCK-8); type: cell-based; settings: Homo sapiens, MDA-MB-468, breast cancer, 72 hours
Protocol: as §1, §2, §3, §4

HepG2 = experiment: Cancer cell proliferation GI50 (CCK-8); type: cell-based, human; settings: Homo sapiens, HepG2, liver cancer, 72 hours
Protocol: as §1, §2, §3, §4

CCRF-CEM = experiment: Cancer cell proliferation GI50 (CCK-8); type: cell-based; settings: Homo sapiens, acute lymphocytic leukemia, 72 hours
Protocol: as §3, §4

DAUDI = experiment: Cancer cell proliferation GI50 (CCK-8); type: cell-based; settings: Homo sapiens, Burkitt lymphoma, 72 hours
Protocol: as §3, §4

HCC1937 = experiment: Cancer cell proliferation GI50 (CCK-8); type: cell-based; settings: Homo sapiens, HCC1937, breast cancer, 72 hours
Protocol: as §3, §4

HCC70 = experiment: Cancer cell proliferation GI50 (CCK-8); type: cell-based; settings: Homo sapiens, HCC70, breast cancer, 72 hours
Protocol: as §3, §4

HeLa = experiment: Cancer cell proliferation GI50 (CCK-8); type: cell-based; settings: Homo sapiens, cervical cancer, 72 hours
Protocol: as §3, §4

K562 = experiment: Cancer cell proliferation GI50 (CCK-8); type: cell-based; settings: Homo sapiens, K562, chronic myeloid leukemia (CML), 72 hours
Protocol: as §3, §4

KU-812 = experiment: Cancer cell proliferation GI50 (CCK-8); type: cell-based; settings: Homo sapiens, KU812, KU-812, chronic myeloid leukemia, 72 hours
Protocol: as §3, §4

LNCaP = experiment: Cancer cell proliferation GI50 (CCK-8); type: cell-based; settings: Homo sapiens, prostate cancer, 72 hours
Protocol: as §3, §4

MEG-01 = experiment: Cancer cell proliferation GI50 (CCK-8); type: cell-based; settings: Homo sapiens, MEG-01, chronic myeloid leukemia, 72 hours
Protocol: as §3, §4

MOLM-14 = experiment: Cancer cell proliferation GI50 (CCK-8); type: cell-based; settings: Homo sapiens, MOLM-14, acute myeloid leukemia, 72 hours
Protocol: as §3, §4

MOLM/AZA-1 = experiment: Cancer cell proliferation GI50 (CCK-8); type: cell-based; settings: MOLM/AZA-1, acute myeloid leukemia, 72 hours
Protocol: as §3, §4

MOLM/CYT = experiment: Cancer cell proliferation GI50 (CCK-8); type: cell-based; settings: acute myeloid leukemia, 72 hours
Protocol: as §3, §4

NALM-20 = experiment: Cancer cell proliferation GI50 (CCK-8); type: cell-based; settings: NALM-20, B cell acute lymphocytic leukemia, 72 hours
Protocol: as §3, §4

NB4 = experiment: Cancer cell proliferation GI50 (CCK-8); type: cell-based; settings: Homo sapiens, NB-4, NB4, acute promyelocytic leukemia, 72 hours
Protocol: as §3, §4

OCI-AML2 = experiment: Cancer cell proliferation GI50 (CCK-8); type: cell-based; settings: Homo sapiens, OCI-AML2, acute myeloid leukemia, 72 hours
Protocol: as §3, §4

RCH-ACV = experiment: Cancer cell proliferation GI50 (CCK-8); type: cell-based; settings: B cell acute lymphocytic leukemia, 72 hours
Protocol: as §3, §4

RPMI-8226 = experiment: Cancer cell proliferation GI50 (CCK-8); type: cell-based; settings: Homo sapiens, RPMI-8226, multiple myeloma, 72 hours
Protocol: as §3, §4

SK-BR-3 = experiment: Cancer cell proliferation GI50 (CCK-8); type: cell-based; settings: Homo sapiens, SK-BR-3, breast cancer, 72 hours
Protocol: as §3, §4

SKM-1 = experiment: Cancer cell proliferation GI50 (CCK-8); type: cell-based; settings: Homo sapiens, SKM-1, acute myeloid leukemia, 72 hours
Protocol: as §3, §4

SKOV-3 = experiment: Cancer cell proliferation GI50 (CCK-8); type: cell-based; settings: Homo sapiens, SK-OV-3, SKOV-3, ovarian cancer, 72 hours
Protocol: as §3, §4

SR = experiment: Cancer cell proliferation GI50 (CCK-8); type: cell-based; settings: Homo sapiens, immunoblastic large cell lymphoma, 72 hours
Protocol: as §3, §4

T47D = experiment: Cancer cell proliferation GI50 (CCK-8); type: cell-based; settings: Homo sapiens, breast cancer, 72 hours
Protocol: as §3, §4

THP-1 = experiment: Cancer cell proliferation GI50 (CCK-8); type: cell-based; settings: Homo sapiens, THP-1, acute myeloid leukemia, 72 hours
Protocol: as §3, §4

THP/DEC-2 = experiment: Cancer cell proliferation GI50 (CCK-8); type: cell-based; settings: THP/DEC-2, acute myeloid leukemia, 72 hours
Protocol: as §3, §4

TOM-1 = experiment: Cancer cell proliferation GI50 (CCK-8); type: cell-based; settings: TOM-1, B cell acute lymphocytic leukemia, 72 hours
Protocol: as §3, §4

U937 = experiment: Cancer cell proliferation GI50 (CCK-8); type: cell-based; settings: Homo sapiens, U-937, U937, acute myeloid leukemia, 72 hours
Protocol: as §3, §4

CCc1cnc(NC(=O)[C@@H](C)c2cccc(-c3cnc(NC(=O)/C=C/CN(C)C)c(C#N)c3)c2)s1 [Compound 121, (S,E)-N-(3-cyano-5-(3-(1-((5-ethylthiazol-2-yl)amino)-1-oxopropan-2-yl)phenyl)pyridin-2-yl)-4-(dimethylamino)but-2-enamide]
IC50 (MDA-MB-468 cells; Homo sapiens, MDA-MB-468, 72 h): ≤ 14 nM
IC50 (MDA-MB-468 cells; 72 hours): 14 nM
GI50 (Hep3B): 9 nM
GI50 (Huh7): 7 nM
GI50 (MDA-MB-231): 6 nM
GI50 (MDA-MB-468): 4 nM
GI50 (HepG2): 14 nM
GI50 (CCRF-CEM): 15.6 nM
GI50 (DAUDI): 9.15 nM
GI50 (HCC1937): 14.6 nM
GI50 (HCC70): 11.2 nM
GI50 (HeLa): 10.8 nM
GI50 (K562): 18.9 nM
GI50 (KU-812): 3.64 nM
GI50 (LNCaP): 8 nM
GI50 (MEG-01): 4 nM
GI50 (MOLM-14): 2.77 nM
GI50 (MOLM/AZA-1): 13.2 nM
GI50 (MOLM/CYT): 0.94 nM
GI50 (NALM-20): 18.6 nM
GI50 (NB4): 12.9 nM
GI50 (OCI-AML2): 7.74 nM
GI50 (RCH-ACV): 4.1 nM
GI50 (RPMI-8226): 16.4 nM
GI50 (SK-BR-3): 10.6 nM
GI50 (SKM-1): 25 nM
GI50 (SKOV-3): 9.6 nM
GI50 (SR): 5.83 nM
GI50 (T47D): 19.3 nM
GI50 (THP-1): 1.95 nM
GI50 (THP/DEC-2): 3.6 nM
GI50 (TOM-1): 4.36 nM
GI50 (U937): 2.43 nM

— patent publication US20230095520A1, “PHARMACEUTICAL COMPOSITION FOR PREVENTING OR TREATING CANCER COMPRISING AZOLE DERIVATIVES OR PHARMACEUTICALLY ACCEPTABLE SALT THEREOF” (Yungjin Pharm. Co., Ltd., priority 2020, published 2023)
